In patent US20250276977A1, “TYK2 INHIBITORS AND USES THEREOF” (Alumis Inc., priority 2019, published 2025):
Where two headings read alike, the source gives them in different places.

Test system: INFα induced pSTAT5
Experiment: INFα induced pSTAT5 in human PBMC
Assay type: cell-based
Conditions: INFα 5000 units/ml, read-out: p-STAT5 IC50
Protocol: Fresh Human PBMCs were resuspended in RPMI 1640 medium with 10% FBS. Cells were seeded in a round bottom 96-well plate at the concentration of 200,000 cells/well. A 10-point dilution series of test compound (top dose 10 uM, 1:5 dilution) was added to the well using the liquid dispenser (Tecan D300e) and incubated for 1 hour at 37 C. Then human INFα recombinant protein (R&D Systems) was added to the well at the final concentration of 5000 units/ml and incubated for 15 minutes at 37 C. Cell lysates were prepared and analyzed by Phospho STAT3 (Tyr705) cellular kit (Cisbio) or Phospho STAT5 (Tyr693) Kit (Meso Scale Discovery) following manufacturer's protocol.
For calculation of the inhibition rate, the relative pSTAT signal of each well=pSTAT signal of each well−the average pSTAT signal of baseline.
The inhibition %=(the average pSTAT signal of INFα treatment wells—the relative of pSTAT signal in each compound containing well)/the average pSTAT signal of INFα treatment wells * 100%
The curve was plotted as the inhibition % (y-axis) vs. compounds concentration (x-axis) and was fitted with log(inhibitor) vs. normalized response—Variable slope by GraphPad Prism7.0.

| IC50 [nM] | IC50 (Homo sapiens, PBMC) [nM] | SMILES |
| --- | --- | --- |
| 0.7 | – | CNc1cc2nc3c(cnn13)C(=O)N[C@H](C)C(C)OCc1ccc(OC)c(c1)N2 (single isomer, unassigned) [Example 32] |
| 42.8 | – | CNc1cc2nc3c(cnn13)C(=O)N[C@H](C)C(C)OCc1ccc(OC)c(c1)N2 (single isomer, unassigned) [Example 33] |
| – | 151 | CNc1cc2nn3c(cnc13)C(=O)NCCCOc1cnc(OC)c(c1)N2 [Example 5] |
| – | 13.9 | CNc1cc2nn3c(cnc13)C(=O)NCC(C)OCc1ccc(OC)c(c1)N2 (stereo not drawn) [Example 8] |
| – | 923 | CNc1cc2nn3c(cnc13)C(=O)NCCOCc1cccc(OC)c1N2 [Example 9] |
| – | 436 | CNc1cc2nn3c(cnc13)C(=O)N[C@@H](C)COCc1ccc(OC)c(c1)N2 [Example 11] |
| – | 2.2 | CNc1cc2nc3c(cnn13)C(=O)NC(C)COCc1ccc(OC)c(c1)N2 (stereo not drawn) [Example 12] |
| – | 460 | CNc1cc2nn3c(cnc13)C(=O)NCCOC(C)c1ccc(OC)c(c1)N2 (stereo not drawn) [Example 13] |
| – | 3 | CNc1cc2nn3c(cnc13)C(=O)N[C@H](C)COCc1cnc(OC)c(c1)N2 [Example 14] |
| – | 3.6 | CNc1cc2nn3c(cnc13)C(=O)NC(C)COCc1cc(c(OC)cc1F)N2 (stereo not drawn) [Example 16] |
| – | 1 | CNc1cc2nn3c(cnc13)C(=O)N[C@H](C)COCc1cc(c(OC)cc1F)N2 [Example 17, (E)-3^4-fluoro-3^6-methoxy-7-methyl-1^8-(methylamino)-5-oxa-2,8-diaza-1(6,3)-imidazo[1,2-b]pyridazina-3(1,3)-benzenacyclononaphan-9-one] |
| – | 1.3 | CNc1cc2nn3c(cnc13)C(=O)N[C@H](C)COCc1cc(F)c(OC)c(c1)N2 [Example 18, (7R,E)-3^5-fluoro-3^6-methoxy-7-methyl-1^8-(methylamino)-5-oxa-2,8-diaza-1(6,3)-imidazo[1,2-b]pyridazina-3(1, 3)-benzenacyclononaphan-9-one] |
| – | 15.3 | CNc1cc2nn3c(cnc13)C(=O)NC1(CC1)COCc1ccc(OC)c(c1)N2 [Example 20, (E)-6′-methoxy-8′-(methylamino)spiro[cyclopropane-1,7′-5-oxa-2,8-diaza-1(6,3)-imidazo[1,2-b]pyridazina-3(1,3)-benzenacyclononaphan]-9′-one] |
| – | 102 | CNc1cc2nn3c(cnc13)C(=O)NC(C)CCn1ncc3cc(OC)c(cc31)N2 (stereo not drawn) [Example 21, (E)-3^5-methoxy-6-methyl-1^8-(methylamino)-31H-2,7-diaza-1(6,3)-imidazo [1,2-b]pyridazina-3(6,1)-indazolacyclooctaphan-8-one] |
| – | 10.7 | CNc1cc2nn3c(cnc13)C(=O)N[C@H]1C[C@H](C1)OCc1ccc(OC)c(c1)N2 [Example 22] |
| – | 2.1 | CNc1cc2nc3c(cnn13)C(=O)N[C@H](C)COCc1ccc(OC)c(c1)N2 [Example 25] |
| > 200 | – | CNc1cc2nc3c(cnn13)C(=O)N[C@H](C)COCc1cnc(OC)c(c1)N2 [Example 26] |
| – | 7.2 | CNc1cc2nc3c(cnn13)C(=O)N[C@H](C)COCc1cc(c(OC)cn1)N2 [Example 27] |
| – | 8.3 | CNc1cc2nc3c(cnn13)C(=O)N[C@H](C)COCc1cc(c(=O)n(-c3ccccn3)c1)N2 [Example 28] |
| – | 3.1 | CNc1cc2nc3c(cnn13)C(=O)N[C@H](C)COCc1cc(c3nn(C)cc3c1)N2 [Example 29] |
| – | > 200 | CNc1cc2nc3c(cnn13)C(=O)N[C@@H](C)C(C)OCc1ccc(OC)c(c1)N2 (stereo partly drawn) [Example 30] |
| > 200 | – | CNc1cc2nc3c(cnn13)C(=O)N[C@@H](C)C(C)OCc1ccc(OC)c(c1)N2 (stereo partly drawn) [Example 31] |
| – | 2.5 | CNc1cc2nc3c(cnn13)C(=O)N[C@H](C)COCc1cc(c3oc(C)nc3c1)N2 [Example 34] |
| – | 1.7 | CNc1cc2nc3c(cnn13)C(=O)N[C@H](C)COCc1cc(c3nn(C)nc3c1)N2 [Example 35] |

| IC50 [nM] | IC50 (Homo sapiens, PBMC) [nM] | SMILES |
| --- | --- | --- |
| – | 0.7 | CNc1cc2nc3c(cnn13)C(=O)N[C@H](C)COCc1cc(c3nnn(C)c3c1)N2 [Example 36] |
| – | 90.1 | CNc1cc2nc3c(cnn13)C(=O)N[C@H](C)COCc1cc(c3c(c1)nnn3C)N2 [Example 37] |
| – | > 200 | CNc1cc2nc3c(cnn13)C(=O)N[C@H](C)COc1ccc(OC)c(c1)N2 [Example 38] |
| – | 2.4 | CNc1cc2nc3c(cnn13)C(=O)N[C@H](C)COCc1ccc(C#N)c(c1)N2 [Example 40] |
| – | 3.6 | CNC(=O)c1ccc2cc1Nc1cc(NC)n3ncc(c3n1)C(=O)N[C@H](C)COC2 [Example 41] |
| – | 13.6 | CNc1cc2nn3c(cnc13)C(=O)N[C@H](C)COCc1ccc(OC)c(c1)N2 [Example 42] |
| – | 3.8 | CNc1cc2nc3c(cnn13)C(=O)N[C@H](C)COCc1ccc(OC(F)(F)F)c(c1)N2 [Example 43] |
| – | 2 | CNc1cc2nc3c(cnn13)C(=O)N[C@H](C)COCc1cc(C#N)cc(c1)N2 [Example 44] |
| – | 1.1 | CNc1cc2nc3c(cnn13)C(=O)N[C@H](C)COCc1cc(cc(OC)c1)N2 [Example 45] |
| – | 2.8 | CNc1cc2nc3c(cnn13)C(=O)N[C@H](C)COCc1cc(F)cc(c1)N2 [Example 46] |
| 2.4 | – | CNc1cc2nc3c(cnn13)C(=O)N[C@H](C)COCc1cnc(OC)c(c1)N2 [Example 47] |
| – | 16.7 | CNc1cc2nc3c(cnn13)C(=O)N[C@H](C)COCc1cc(Br)c(OC)c(c1)N2 [Example 48] |
| – | 1.7 | CNc1cc2nc3c(cnn13)C(=O)N[C@H](C)COCc1cc(nc(N3CCCC3=O)c1)N2 [Example 49] |
| – | > 1000 | CNc1cc2nn3c(cnc13)C(=O)N[C@H](C)COCc1nc(C)cc(n1)N2 [Example 50, (7R,E)-3^6,7-dimethyl-1^8-(methylamino)-5-oxa-2,8-diaza-1(6,3)-imidazo[1,2-b]pyridazina-3(4,2)-pyrimidinacyclononaphan-9-one] |
| – | 5.9 | CNc1cc2nc3c(cnn13)C(=O)N[C@H](C)COCc1cc(c(OC)cc1F)N2 [Example 52, (R, 1^3E, 1^4E)-3^4-fluoro-3^6-methoxy-7-methyl-1^7-(methylamino)-5-oxa-2,8-diaza-1(5,3)-pyrazolo[1,5-a]pyrimidina-3(1,3)-benzenacyclononaphan-9-one] |
| – | 9.4 | CNc1cc2nc3c(cnn13)C(=O)N[C@H](C)COCc1cc(c3cn(C)nc3c1)N2 [Example 53, (R, 1^3E, 1^4E, 3^4E)-3^2,7-dimethyl-1^7-(methylamino)-3^2H-5-oxa-2,8-diaza-1(5,3)-pyrazolo[1,5-a]pyrimidina-3(4,6)-indazolacyclononaphan-9-one] |
| – | 0.3 | CNc1cc2nc3c(cnn13)C(=O)N[C@H](C)COCc1cc(c3cnn(C)c3c1)N2 [Example 54, (R, 1^3E, 1^4E)-31,7-dimethyl-1^7-(methylamino)-31H-5-oxa-2,8-diaza-1(5,3)-pyrazolo[1,5-a]pyrimidina-3(4,6)-indazolacyclononaphan-9-one] |
| – | > 200 | COc1ccc2nc1Nc1cc(N)n3ncc(c3n1)C(=O)N[C@H](C)COC2 [Example 55, (R, 1^3E, 1^4E)-33-methoxy-7-methyl-1^7-(methylamino)-5-oxa-2,8-diaza-1(5,3)-pyrazolo[1,5-a]pyrimidina-3(2,6)-pyridinacyclononaphan-9-one] |
| – | 28.8 | CNc1cc2nc3c(cnn13)C(=O)N[C@H](C)COCc1ccc(F)c(c1)N2 [Example 56, (R, 1^3E, 1^4E)-3^6-fluoro-7-methyl-1^7-(methylamino)-5-oxa-2,8-diaza-1(5,3)-pyrazolo[1,5-a]pyrimidina-3(1,3)-benzenacyclononaphan-9-one] |
| – | 21.2 | CNc1cc2nc3c(cnn13)C(=O)N[C@H](C)COCc1cc(c(=O)n(C)n1)N2 [Example 57, (R,1^3E,1^4E,3^4E)-31,7-dimethyl-1^7-(methylamino)-3^1,3^6-dihydro-5-oxa-2,8-diaza-1(5,3)-pyrazolo[1,5-a]pyrimidina-3(5,3)-pyridazinacyclononaphane-36,9-dione] |
| – | 7.7 | CNc1cc2nn3c(cnc13)C(=O)N[C@H](C)COCc1cc(c(=O)n(C)n1)N2 [Example 58, (15E,34E,7R)-31,7-dimethyl-18-(methylamino)-31,36-dihydro-5-oxa-2,8-diaza-1(6,3)-imidazo[1,2-b]pyridazina-3(5,3)-pyridazinacyclononaphane-36,9-dione] |
| – | 39.1 | CNc1cc2nc3c(cnn13)C(=O)N[C@H](C)COCc1cc(c(OC)nn1)N2 [Example 59, (R,1^3E,1^4E)-3^6-methoxy-7-methyl-1^7-(methylamino)-5-oxa-2,8-diaza-1(5,3)-pyrazolo[1,5-a]pyrimidina-3(5,3)-pyridazinacyclononaphan-9-one] |
| – | 3.8 | CNc1cc2nc3c(cnn13)C(=O)N[C@H](C)COCc1cc(c3nccn3c1)N2 [Example 60, (R,1^3E,1^4E,3^7E)-7-methyl-1^7-(methylamino)-5-oxa-2,8-diaza-1(5,3)-pyrazolo[1,5-a]pyrimidina-3(8,6)-imidazo[1,2-a]pyridinacyclononaphan-9-one] |
| – | 3.8 | CNc1cc2nc3c(cnn13)C(=O)N[C@H](C)COCc1cc(F)c(OC)c(c1)N2 [Example 62] |
